This passage reports Kd results from paper PMC11427828, “The role of chloroplast SRP54 domains and its C-terminal tail region in post- and co-translational protein transport in vivo” (Journal of Experimental Botany, 2024).

Test [1] has as its target T1, cpSRP54–His (recombinant mature cpSRP54) (Arabidopsis thaliana, UniProt P37107, Q185R).
T1 construct: gene FFC; mature protein, residues 79-564 (transit peptide removed), C-terminal His6, E. coli Rosetta (DE3), EDTA-treated then SEC in Mg buffer
T1 sequence (P37107 79-564 Q185R): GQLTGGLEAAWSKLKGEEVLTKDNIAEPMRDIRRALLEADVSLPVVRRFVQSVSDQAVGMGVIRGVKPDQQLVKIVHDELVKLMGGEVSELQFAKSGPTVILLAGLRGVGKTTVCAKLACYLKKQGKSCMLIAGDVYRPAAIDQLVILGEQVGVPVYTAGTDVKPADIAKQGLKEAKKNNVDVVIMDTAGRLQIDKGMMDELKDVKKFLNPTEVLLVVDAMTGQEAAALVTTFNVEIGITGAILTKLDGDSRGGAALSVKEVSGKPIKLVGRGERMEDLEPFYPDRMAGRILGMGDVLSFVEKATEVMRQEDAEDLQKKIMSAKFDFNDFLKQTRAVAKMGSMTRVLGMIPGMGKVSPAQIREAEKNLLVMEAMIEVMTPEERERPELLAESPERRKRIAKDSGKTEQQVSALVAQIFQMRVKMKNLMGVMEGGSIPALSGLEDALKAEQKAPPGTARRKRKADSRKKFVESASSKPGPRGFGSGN
Description: isothermal titration calorimetry. The settings on record: read-out: dissociation constant. The class given is binding. (In ITC the heat of successive injections is recorded.)

In test [2] the target is T2, cpSRP54–His (recombinant mature cpSRP54) (Arabidopsis thaliana, UniProt P37107).
T2 construct: gene FFC; mature protein, residues 79-564 (transit peptide removed), C-terminal His6, E. coli Rosetta (DE3), EDTA-treated then SEC in Mg buffer
T2 sequence (P37107 79-564): T1 sequence (P37107 79-564 Q185R) with R107Q
Description: isothermal titration calorimetry. The settings on record: read-out: dissociation constant. In kind it is binding.

Positions count from the first letter of the chain named.

On to `Nc1nc2c(ncn2[C@@H]2O[C@H](COP(=O)(O)OP(=O)(O)O)[C@@H](O)[C@H]2O)c(=O)[nH]1` [GDP], for which the results for the Kd in test [1] and in test [2] were 30.3 µM and 30.2 µM, respectively.

As to `Nc1nc2c(ncn2[C@@H]2O[C@H](COP(=O)(O)OP(=O)(O)OP(=O)(O)O)[C@@H](O)[C@H]2O)c(=O)[nH]1` [GTP], the Kd in test [1] is 17.3 µM; in test [2], 53.4 µM.
